The text below walks through data of the NIST ThermoML archive (doi:10.1016/j.fluid.2014.04.003).

The conditions of this series: Crystal; DTA.

Numbers after ± are expanded uncertainties.

For `CC(C)Cc1ccc([C@H](C)C(=O)O)cc1.CCCCCCCCNC[C@H](O)[C@@H](O)[C@H](O)[C@H](O)CO` [S-ibuprofen n-octyl-d-glucamine salt], the Normal melting temperature came out at 139.26 ± 0.39 °C.
